The text below walks through data of PMC5874699, “Antimicrobial and Antibiofilm Activity of UP-5, an Ultrashort Antimicrobial Peptide Designed Using Only Arginine and Biphenylalanine” (Pharmaceuticals, 2018).

Read-outs that look alike come from different tables or passages of the source. Square brackets hold non-standard residues; d marks the D form. Peptide text beside a SMILES is read from it. Bip = N[C@@H](Cc1ccc(-c2ccccc2)cc1)C(=O)O Where only a bound is given, the exact number is not on record here.

In data set [1] the test system is P. aeruginosa (ATCC BAA-2114). Type of data set: cell-based, Pseudomonas aeruginosa. Conditions: ATCC BAA-2114, 24 h. From the text: All bacterial susceptibility, biofilm, and synergistic assays of peptides, antibiotics, and peptides-antibiotics combinations used bacterial strains obtained from the American Type Tissue Culture Collection (ATCC, Manassas, VA, USA) that states the mechanism of resistance for each strain according to ATCC number. Gram-positive bacteria were represented by five strains, the wild type strain Staphylococcus aureus (ATCC 29213) and methicillin-resistant S. aureus (MRSA) (ATCC 33591) in addition to clinically isolated strains S. aureus (ATCC BAA-41& 43300) and Enterococcus faecalis (ATCC BAA-2316). The Gram-negative bacteria strains were represented by wild type strains of Escherichia coli (ATCC 25922 & 35218) and Pseudomonas aeruginosa (ATCC 27853) as well as the clinically isolated multidrug-resistant strain P. aeruginosa (ATCC BAA-2114). The bacteria were cultured onto Muller Hinton Agar (Scharlab, S.L, Barcelona, Spain). Mueller Hinton Broth (Oxoid Ltd., Basingstoke, UK) was used to prepare all bacterial suspensions and to dissolve the peptides and the antibiotics. The assay was performed in sterile 96-well polypropylene microtiter plates.
All bacterial susceptibility assays were conducted according to the microbroth dilution method outlined by the Clinical and Laboratory Standards Institute (CLSI) guidelines.
Briefly, pre-sterilized MHB was used as a growth medium for organisms obtained from stock media with glycerol. Bacterial cells were grown overnight in MHB and diluted to 10^6 CFU/mL in the same medium prior to use. For peptide, serial concentrations in the range of 0.5–100 μM were prepared. Then, 50 μL of each peptide concentration and 50 µL of diluted bacterial suspension were added to each well of a 96-well microtiter plate. Peptide solutions were prepared by dissolving the peptide in sterile MHB. Then, the plates were incubated overnight in a humidified atmosphere, and at 37 °C. Bacterial growth was determined by measuring the optical density (OD) at λ = 600 nm using an ELISA plate reader (Epoch, BioTek, Winooski, VT, USA) and the minimum inhibitory concentration (MIC) was determined.
As described in the previous section, the MIC and MBC values of antibiotics employed in this study were determined against subjected bacterial strains via preparing different concentrations of each antibiotic.

A further data set relates to human erythrocytes. In kind it is cell-based. Here is the method:
Two milliliters of human blood were placed into a 50 mL centrifuge tube and centrifuged (3000× g). The supernatant was discarded, the cell pellet re-suspended in 48 mL of PBS, and centrifuged as above; this step was repeated twice. Finally, 2 mL of cell pellet were re-suspended in a sterile tube containing 48 mL PBS to reach a final concentration of 4% RBC. […] Positive controls were prepared by adding 5 µL of 0.1% (Triton 100X) to 2 mL of 4% RBC suspension and negative controls were prepared by adding 2 mL of 4% RBC suspension only. All preparations were incubated for 60 min at 37 °C. Next, the tubes were gently vortexed and 1 mL of each sample were removed and placed into sterilized eppendorf tubes and then centrifuged (3000× g). Then, 200 µL of each supernatant was placed into a 96 well-plate. Absorbance was measured at λ = 450 nm with the aid of an ELISA reader. The percentage hemolysis was calculated according to the following equation:(2) % Hemolysis=A−AO/AX−AO×100 where A is the optical density at 450 nm (OD450) of the peptide solution, AO is the OD450 of the negative control (0.9% NaCl) and AX is the OD450 of the positive control (0.1% Triton 10X).

Another data set has as its system Vero cells. Type of data set: cell-based. Particulars: 24 h. Here is the method:
Vero cells were seeded at 5 × 10^3 cells per well in flat-bottomed 96-well plates, and the plate was incubated for 18–24 h at 37 °C under 5% CO2 to allow cell attachment on the bottom of the plates. Next day, different concentrations of the peptide were prepared as a gradient using growth medium as the diluent (150, 200, 250, 300, 400, 500, and 600 µM). The plates were incubated for 24 h at 37 °C under 5% CO2. Next, 30 μL (2.5 g/L) MTT solutions were added to all wells and the plates were incubated for 4–6 h. After incubation, the MTT-Peptide solution was removed and a 100 μL of DMSO was added to each well and mixed thoroughly by pipetting to dissolve the Formazan crystals at the bottom of the wells until a clear purple color was achieved. The plates were then placed on an ELx808™ Absorbance Microplate Reader (BioTek, Winooski, VT, USA) and the absorbance was measured at λ = 540 nm.

A short description of another data set: in vitro. Type of data set: in vitro ADME. Conditions: mouse. Here is the method: The stability assay of UP-5 relied on a previously reported stability test procedure employing mouse plasma or mouse serum (PAA Laboratories, Pasching, Austria). Briefly, a stock solution of the peptide was prepared in 5% aqueous DMSO. The highest DMSO concentration was less than 0.5% after dilution in order to have a final concentration of peptide equal to 1 g/L. Each peptide was dissolved in plasma or serum at a final concentration corresponding to 75 µg/mL and incubated at 37 °C (750 rpm, Eppendorf, Hamburg, Germany). After different time periods, aliquots (47.5 µL) were taken and proteins were precipitated by addition of 150 µL of a mixture composed acetonitrile, water, and formic acid (89:10:1 by volume). The samples were incubated on ice for 45 min and centrifuged for 10 min at 13,000× g (Eppendorf, Hamburg, Germany). […] The second supernatant (155 µL) was collected and dried under vacuum. The samples were dissolved in 3% aqueous acetonitrile containing, 0.1% formic acid, and were analyzed using an Agilent 1100 HPLC system (Agilent Technologies, Santa Clara, CA, USA), coupled online to an Esquire HCT mass spectrometer (Bruker Daltonik GmbH, Bremen, Germany) equipped with an analytical Jupiter C18-reversed phase column (2 mm inner diameter, 150 mm length, 5 µm particle size, […]). Eluent A contained 0.1% formic acid in water and Eluent B was 60% aqueous acetonitrile containing 0.1% formic acid.

Usually IC50 stands for the concentration needed to halve the response being measured. High values mean weaker potency in that assay, low ones greater potency in that assay. In general, half-life refers to the time needed for the level to fall by half in the phase considered. As usually defined, the fraction remaining is what is left of the initial amount, in per cent. A high value points to greater stability. Consider `N=C(N)NCCC[C@H](NC(=O)[C@H](Cc1ccc(-c2ccccc2)cc1)NC(=O)[C@H](CCCNC(=N)N)NC(=O)[C@H](Cc1ccc(-c2ccccc2)cc1)NC(=O)[C@@H](N)CCCNC(=N)N)C(=O)O` [UP-5] (H-R[Bip]R[Bip]R-OH), for which, in data set [1], the “MBC Value” came to 55 µM and the “MIC Value” is 55 µM. Further, in the data set on human erythrocytes (40 µM), the “Hemolysis (%)” value came to 0.09%. Also, the “Hemolysis (%)” value in the data set on human erythrocytes (60 µM) was 1.01%. Besides, in the data set with human erythrocytes (80 µM), the “Hemolysis (%)” value worked out at 1.04%. Further, the “Hemolysis (%)” value in the data set on human erythrocytes (150 µM) amounted to 3.0%. The “Hemolysis (%)” value in the data set on human erythrocytes (175 µM) amounted to 3.04%. For the same compound, in the data set on Vero cells, the half-maximal inhibitory concentration (IC50) was above 250 µM. Besides, in the data set “in vitro” (plasma), the half-life at 75 µg/mL was found to be 2.88 h; the metabolised at 1 h, 75 µg/mL came to 27%; the metabolised at 4 h, 75 µg/mL was 66%; the fraction remaining at 1 h, 75 µg/mL was determined as 73%. In the data set “in vitro” (plasma), the share remaining at 4 h, 75 µg/mL was found to be 34%. Further, in “in vitro” (serum), the half-life at 75 µg/mL is below 0.25 h and the metabolised at 0.25 h, 75 µg/mL is above 80%.
